In US20110033946A1, “DETECTION OF SHORT-CHAIN FATTY ACIDS IN BIOLOGICAL SAMPLES” (HEMAQUEST PHARMACEUTICALS, INC., priority 2009, published 2011):
Several values for one entry are separate records, joined by “and”; a condition that tells them apart may be missing. Identical values can stand only once.

Experiments:
[1] = Freeze/thaw cycle stability in dog plasma; type: physicochemical; settings: three freeze/thaw cycles at approximately −70° C.
Procedure: For the remaining validation tests, a calibration curve and triplicates QCs at the low, mid and high levels were analyzed with each sample set. The following samples were also analyzed either in conjunction with one of the precision and accuracy runs or in one of the additional validation runs: Samples from six lots of control dog plasma for specificity. Two concentration levels of unextracted QC-samples in triplicate (solvent standards) were analyzed for the evaluation of the recovery of sodium 2,2-dimethylbutyrate and DMV in dog plasma. Two levels of QC samples (Low QC and High QC in triplicate) were subjected to three freeze/thaw cycles at approximately −70° C. prior to extraction to evaluate freeze/thaw stability. Two levels of QC samples (Low QC and High QC in triplicate) were placed on the bench top for approximately 17 hours prior to extraction for the evaluation of the bench top stability. Triplicate low QC samples and triplicate high QC samples were stored for one month and three months in a freezer at approximately −70° C., and then extracted and analyzed to evaluate long term stability in dog plasma. Three aliquots of a dilution QC sample diluted 10-fold.
The stability of sodium 2,2-dimethylbutyrate in dog plasma was evaluated at approximately −70° C. for three cycles using QC-Low and QC-High samples in triplicate. The freeze time was at least 12 hours, with a minimum thaw time of one hour. The CV % values for the QC-Low and QC-High stability samples are 1.4% and 2.8%, respectively. To calculate the RE %, the measured mean concentration was compared to the nominal concentration. The RE % values for the QC-Low and QC-High stability samples are 1.9% and −8.1%, respectively.

[2] = Extract autosampler stability (human plasma extract); type: physicochemical; settings: for Extract autosampler stability, Mean concentration / Extract autosampler stability, RE % (mean vs nominal) / Extract autosampler stability, concentration found (replicate): at least 71 hours in autosampler, ambient
Procedure: The following samples were also analyzed either in conjunction with one of the precision and accuracy runs or in one of the additional validation runs. Samples from six lots of control human plasma for specificity. Samples from six lots of control human plasma fortified with internal standard for specificity. Two concentration levels of unextracted QC-samples in triplicate (solvent standards) were analyzed for the evaluation of the recovery of sodium 2,2-dimethylbutyrate and DMV in human plasma. Two levels of QC samples (Low QC and High QC in triplicate) were subjected to three freeze/thaw cycles at approximately −70° C. prior to extraction to evaluate freeze/thaw stability. Two levels of QC samples (Low QC and High QC in triplicate) were placed on the bench top for approximately 17 hours prior to extraction for the evaluation of the bench top stability. Triplicate low QC samples and triplicate high QC samples were stored for one month and three months in a freezer at approximately −70° C., and then extracted and analyzed to evaluate long term stability in human plasma. Two levels of extracted QC samples (Low QC and High QC) were re-analyzed after approximately 71 hours in the autosampler at room temperature to evaluate the extract autosampler stability. Two levels of extracted QC samples (Low QC and High QC) were re-analyzed after approximately 8 hours in the freezer at approximately −20° C. to evaluate the extract freeze stability. Three aliquots of a dilution QC sample diluted 10-fold. Triplicate dilutions of the old stock solution (stored at approximately 4° C.) and new stock solutions prepared at intervals of two weeks and one month. Statistical calculations in the report tables were calculated from unrounded concentration values taken directly from the raw data. The concentration values were rounded for display purposes.
After extraction, the QC samples were analyzed and left in the autosampler for at least 71 hours, then re-injected onto the LC-MS/MS. Triplicate QC-Low and QC-High samples were analyzed for the autosampler stability determination. The CV % values for the QC-Low and QC-High stability samples are 7.5% and 6.4%, respectively. To calculate the RE %, the measured mean concentration was compared to the nominal concentration. The RE % values for the QC-Low and QC-High stability samples are 1.9% and 4.6%, respectively.

Stability after freeze/thaw cycles [1]: stable
Freeze/thaw cycle stability, Mean concentration ([1]; QC-High, nominal 40.0 μg/mL): 36.8 µg/mL
Freeze/thaw cycle stability, RE % (mean vs nominal) ([1]; QC-High, nominal 40.0 μg/mL): −8.1%
Freeze/thaw cycle stability, concentration found (replicate) ([1]; QC-High, nominal 40.0 μg/mL): 36.2 μg/mL (2×) and 37.9 μg/mL
Freeze/thaw cycle stability, Mean concentration ([1]; QC-Low, nominal 0.60 μg/mL): 0.612 µg/mL
Freeze/thaw cycle stability, RE % (mean vs nominal) ([1]; QC-Low, nominal 0.60 μg/mL): 1.9%
Time stable in the extract in the autosampler ([2]; ambient storage in the autosampler): at least 71 hours
Extract autosampler stability, Mean concentration ([2]; QC-High, nominal 40.0 μg/mL): 41.8 µg/mL
Extract autosampler stability, RE % (mean vs nominal) ([2]; QC-High, nominal 40.0 μg/mL): 4.6%
Extract autosampler stability, concentration found (replicate) ([2]; QC-High, nominal 40.0 μg/mL): 42.9 µg/mL and 43.8 µg/mL and 38.8 µg/mL
Extract autosampler stability, Mean concentration ([2]; QC-Low, nominal 0.60 μg/mL): 0.611 µg/mL
Extract autosampler stability, RE % (mean vs nominal) ([2]; QC-Low, nominal 0.60 μg/mL): 1.9%
SMILES: CCC(C)(C)C(=O)[O-].[Na+] [Sodium 2,2-Dimethylbutyrate]
Freeze/thaw cycle stability, concentration found (replicate) ([1]; QC-Low, nominal 0.60 μg/mL): 0.603 µg/mL and 0.620 µg/mL and 0.612 µg/mL
Extract autosampler stability, concentration found (replicate) ([2]; QC-Low, nominal 0.60 μg/mL): 0.663 µg/mL and 0.575 µg/mL and 0.596 µg/mL
